A short description of data set [1]: AUC (0 to t) in Sprague-Dawley rat at 2 mg/kg, iv measured upto 24 hrs by LC-MS/MS-AR analysis. It counts as ADME, organism-based. The settings on record: in vivo.
A further data set relates to Rattus norvegicus. The experiment in a line: Reduction in serum uric acid level in po dosed acute hyperuricemia state Sprague-Dawley rat model assessed as SUA level (reference value: 955.20 +/- 85.56 uM). In kind it is functional.
The next data set addresses Cytochrome P450 2C19 (Homo sapiens, UniProt P33261). Description: Inhibition of CYP2C19 in human liver microsomes measured after 40 mins incubation by LC-MS/MS analysis. In kind it is ADME, Microsome. Background: Liver microsomes are a subcellular fraction often used to study metabolism.
Data set [2] in a line: Acute toxicity in Kunming mouse assessed as change in body weight at 250 to 1000 mg/kg, po administered as single dose monitored for 7 days. In kind it is organism-based. Particulars: in vivo, 168 h, dose 250-1000 mg/kg, time 7 day.
Data set [3] has as its system Mus musculus. The experiment in a line: Reduction in serum uric acid level in acute hyperuricemia state Kunming mouse model assessed as SUA level by measuring decrease ratio at 0.25 mg/kg, po relative to control. In kind it is functional. The arrangement: scale not given: the % may be the effect or the level left.
The nature of data set [4]: Half life in Sprague-Dawley rat at 2 mg/kg, po measured upto 24 hrs by LC-MS/MS-AR analysis. The settings on record: in vivo. It counts as ADME, organism-based.
The target of a further data set is Cytochrome P450 2C9 (Homo sapiens, UniProt P11712). The experiment in a line: Inhibition of CYP2C9 in human liver microsomes measured after 40 mins incubation by LC-MS/MS analysis. In kind it is ADME, Microsome.
The nature of data set [5]: Toxicity in Kunming female mouse assessed as renal injury at 100 mg/kg, po administered every other day for 14 days by H and E staining based assay. In kind it is organism-based. Particulars: in vivo, 336 h, time 14 day.
Data set [6] has as its system Mus musculus. The experiment in a line: Reduction in serum uric acid level in acute hyperuricemia state Kunming mouse model assessed as SUA level at 0.25 mg/kg, po (reference value: 1037 +/- 106.59 uM). It counts as functional.
For data set [7], the system named is Mus musculus. Description: Reduction in serum uric acid level in acute hyperuricemia state Kunming mouse model assessed as SUA level by measuring decrease ratio at 0.5 mg/kg, po relative to control. The arrangement: scale not given: the % may be the effect or the level left. It counts as functional.
In data set [8] the target is T1, Solute carrier family 2, facilitated glucose transporter member 9 (Mus musculus) (UniProt Q3T9X0).
T1 sequence (whole entry): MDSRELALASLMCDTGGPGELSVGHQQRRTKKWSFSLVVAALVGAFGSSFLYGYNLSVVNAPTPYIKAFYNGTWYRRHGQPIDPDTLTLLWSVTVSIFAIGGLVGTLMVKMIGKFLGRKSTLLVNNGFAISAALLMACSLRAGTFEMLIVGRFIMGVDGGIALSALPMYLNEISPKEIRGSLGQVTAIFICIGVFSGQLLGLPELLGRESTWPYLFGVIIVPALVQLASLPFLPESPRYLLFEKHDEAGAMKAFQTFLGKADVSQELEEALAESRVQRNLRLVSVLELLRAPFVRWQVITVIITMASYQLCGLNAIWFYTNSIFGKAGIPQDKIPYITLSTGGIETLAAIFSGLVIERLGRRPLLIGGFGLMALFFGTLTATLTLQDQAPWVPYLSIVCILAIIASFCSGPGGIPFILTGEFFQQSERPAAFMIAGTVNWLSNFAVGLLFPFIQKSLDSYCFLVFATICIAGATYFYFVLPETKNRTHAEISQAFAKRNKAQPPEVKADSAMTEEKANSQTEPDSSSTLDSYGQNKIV
Description: Inhibition of mouse EGFP-tagged GLUT9 expressed in HEK293T cells assessed as inhibition rate by measuring relative current at 5 uM by patch clamp electrophysiological analysis relative to control. In kind it is cell-based. The arrangement: scale not given: the % may be the effect or the level left. On the technique in general: Patch clamp records ionic current or voltage across a cell membrane.

Data set [9] in a line: Acute toxicity in Kunming mouse assessed as fatality rate at 1000 mg/kg, po administered as single dose monitored for 7 days. In kind it is organism-based. The settings on record: in vivo, po, 1000 mg/kg, 168 h, time 7 day.
Data set [10] is described as follows: MRT (0 to infinity) in Sprague-Dawley rat at 2 mg/kg, po measured upto 24 hrs by LC-MS/MS-AR analysis. In kind it is ADME, organism-based. Particulars: in vivo.
Data set [11] concerns the target T2, Solute carrier family 22 member 12 (Homo sapiens, UniProt Q96S37).
T2 sequence (Q96S37 whole entry): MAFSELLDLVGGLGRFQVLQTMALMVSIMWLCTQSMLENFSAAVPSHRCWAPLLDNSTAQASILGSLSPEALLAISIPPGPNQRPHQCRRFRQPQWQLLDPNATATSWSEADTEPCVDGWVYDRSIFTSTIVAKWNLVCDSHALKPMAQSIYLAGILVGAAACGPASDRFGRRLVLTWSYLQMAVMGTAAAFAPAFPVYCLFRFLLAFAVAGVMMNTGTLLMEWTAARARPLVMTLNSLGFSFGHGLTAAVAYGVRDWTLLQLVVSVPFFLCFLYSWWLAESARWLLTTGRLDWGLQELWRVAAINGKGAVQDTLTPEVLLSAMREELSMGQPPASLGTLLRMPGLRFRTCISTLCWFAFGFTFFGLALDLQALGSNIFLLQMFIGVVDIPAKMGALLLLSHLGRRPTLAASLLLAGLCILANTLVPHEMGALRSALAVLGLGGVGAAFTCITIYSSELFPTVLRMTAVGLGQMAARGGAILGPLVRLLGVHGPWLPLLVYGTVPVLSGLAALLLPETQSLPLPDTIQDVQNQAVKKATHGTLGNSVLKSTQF
The experiment in a line: Inhibition of human URAT1 expressed in HEK293T cells using 14C- uric acid assessed as uric acid absorption by measuring intracellular liquid radiation value by liquid scintillation counting analysis. It counts as cell-based.

Data set [12] in a line: Tmax in Sprague-Dawley rat at 2 mg/kg, po measured upto 24 hrs by LC-MS/MS-AR analysis. In kind it is ADME, organism-based. Particulars: in vivo.
Data set [13] is filed under the species Mus musculus. Description: Reduction in serum uric acid level in acute hyperuricemia state Kunming mouse model assessed as SUA level. It counts as functional.
Data set [14] is described as follows: Acute toxicity in Kunming mouse assessed as fatality rate at 500 mg/kg, po administered as single dose monitored for 7 days. In kind it is organism-based. Particulars: in vivo, po, 500 mg/kg, 168 h, time 7 day.
Data set [15] in a line: Subacute toxicity in Kunming male mouse assessed as change in body weight at 100 mg/kg, po administered every other day for 14 days. It counts as organism-based. Particulars: in vivo, 336 h, time 14 day.
Data set [16] in a line: Acute toxicity in Kunming mouse assessed as anorexia at 250 to 1000 mg/kg, po administered as single dose monitored for 7 days. It counts as organism-based. The settings on record: in vivo, 168 h, dose 250-1000 mg/kg, time 7 day.
Data set [17] relates to Mus musculus. The experiment in a line: Reduction in serum uric acid level in acute hyperuricemia state Kunming mouse model assessed as SUA level by measuring decrease ratio at 1 mg/kg, po relative to control. It counts as functional. Also on record: scale not given: the % may be the effect or the level left.
Data set [18] is described as follows: Acute toxicity in Kunming mouse assessed as lethargy at 250 to 1000 mg/kg, po administered as single dose monitored for 7 days. It counts as organism-based. Particulars: in vivo, 168 h, dose 250-1000 mg/kg, time 7 day.
Data set [19] is filed under the species Mus musculus. The experiment in a line: Reduction in serum uric acid level in chronic hyperuricemia state Kunming mouse model assessed as SUA level (reference value: 660.33 +/- 103.57 uM). In kind it is functional.

Chain of Cytochrome P450 2C19 (P33261 whole entry): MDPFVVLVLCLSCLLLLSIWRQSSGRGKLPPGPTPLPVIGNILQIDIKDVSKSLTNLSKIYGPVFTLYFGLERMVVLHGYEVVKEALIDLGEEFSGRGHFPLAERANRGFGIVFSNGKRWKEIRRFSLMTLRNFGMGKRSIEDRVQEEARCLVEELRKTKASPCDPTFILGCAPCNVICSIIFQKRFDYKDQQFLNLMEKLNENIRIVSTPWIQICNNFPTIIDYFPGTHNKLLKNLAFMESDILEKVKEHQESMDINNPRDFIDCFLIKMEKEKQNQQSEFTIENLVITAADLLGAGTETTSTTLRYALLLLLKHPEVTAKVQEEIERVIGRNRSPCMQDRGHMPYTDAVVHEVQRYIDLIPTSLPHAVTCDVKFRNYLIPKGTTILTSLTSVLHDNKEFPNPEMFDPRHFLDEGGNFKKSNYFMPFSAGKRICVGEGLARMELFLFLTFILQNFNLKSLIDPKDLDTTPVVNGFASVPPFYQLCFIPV
Chain of Cytochrome P450 2C9 (P11712 whole entry): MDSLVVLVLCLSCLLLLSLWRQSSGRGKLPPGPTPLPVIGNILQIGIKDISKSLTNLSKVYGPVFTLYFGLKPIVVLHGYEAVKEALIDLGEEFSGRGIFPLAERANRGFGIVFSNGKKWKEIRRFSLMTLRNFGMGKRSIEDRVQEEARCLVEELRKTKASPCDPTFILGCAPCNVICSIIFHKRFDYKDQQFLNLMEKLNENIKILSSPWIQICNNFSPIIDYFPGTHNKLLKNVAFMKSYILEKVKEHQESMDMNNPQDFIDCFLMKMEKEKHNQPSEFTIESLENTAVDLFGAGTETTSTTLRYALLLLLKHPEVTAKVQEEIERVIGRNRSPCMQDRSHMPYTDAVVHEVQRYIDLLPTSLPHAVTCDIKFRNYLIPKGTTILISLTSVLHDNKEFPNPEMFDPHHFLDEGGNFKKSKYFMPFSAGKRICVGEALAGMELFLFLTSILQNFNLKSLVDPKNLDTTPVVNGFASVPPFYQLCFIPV

As for `O=C(O)CCCSc1nc(Nc2ccc(C3CC3)c3ccccc23)c2sccc2n1`, the AUC(0-t) (in general, the area under the concentration-time curve up to a stated or last time point) at 24 h in [1] came out at 1900 ng·h/mL. Moreover, the Activity with Rattus norvegicus is 190.8 µM; in [2], “Toxic”; in the data set with Mus musculus [3], 9.89%; in data set [5], “Toxic”; in the data set with Mus musculus [6], 945 µM; in the data set with Mus musculus [7] it was 66.49%. For the same compound, the Activity was 69.7% in [8]; “Non-Toxic” in [9]; 191.6 µM in the data set listed under Mus musculus [13]; “Non-Toxic” in [14]; “Toxic” in data set [15]; “Non-Toxic” in data set [16]. The Activity with Mus musculus [17] was 89.08%; in data set [18], “Non-Toxic”; in the data set listed under Mus musculus [19] it was 241 µM. The half-maximal inhibitory concentration (IC50) (as a rule, the concentration that inhibits the measured activity by half) against Cytochrome P450 2C19 amounted to 5.93 µM; at Cytochrome P450 2C9, 2 µM; in data set [11] it was 2.01 µM. Further, the half-life (usually how long it takes for the measured level to halve) in [4] was 1.8 h. Also, the MRT inf (in general, a mean duration of stay, worked out from the concentration-time curve) in data set [10] was determined as 2.5 h. The Tmax (in general, the time from dosing to the highest level) in data set [12] is 0.25 h.

(Values after ChEMBL document CHEMBL5528083, “Discovery of a Novel Thienopyrimidine Compound as a Urate Transporter 1 and Glucose Transporter 9 Dual Inhibitor with Improved Efficacy and Favorable Druggability” (J Med Chem, 2024).)
